One data set concerns Caco-2 cell. Put plainly: Stability in the Caco-2 cell system. As to conditions: 4-hour incubation in Caco-2 Transwell; relative to initial conc. = 100.00 (500 μM). The format is in vitro ADME, human. The method, boiled down:
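Compounds at 500 μM initial concentration were incubated 4 h at 37 °C in HBSS alone or on the apical side of Caco-2 monolayers (cultured 18–26 days, TEER over 350 Ω×cm^2). Apical and basolateral levels were quantified by reverse-phase HPLC at 210 nm against the initial concentration.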

Data set [1] in a line: Pharmacokinetics after single subcutaneous dose in rats. The format is in vivo. As to conditions: rat, 1 mg/kg subcutaneous. How it is done: A single dosage of NAP and the NAP derivative of BMEC-NAP0706 were subcutaneously administered to rats respectively, and blood samples were obtained at different time intervals. The blood samples were subjected to LC-MS/MS analysis to measure the concentration of NAP and the NAP derivative. A time-plasma concentration relationship was established and pharmacokinetic parameters were calculated. The procedures are described below.
Long Evans rats with body weight between 220 to 240 g were obtained from the National Laboratory Animal Center, Taiwan and caged in the laboratory animal housing in the Industrial Technology Research Institute, Taiwan. The Breeding procedure follows the “Guide for the Care and Use of Laboratory Animals” established by the Chinese Society of Laboratory Animal Sciences. The rats were kept on an alternating 12-hour light and 12-hour dark schedule with sufficient feed and water until they reached the body weight between 280 to 300 g.
Each rat was weighed before the pharmacokinetic examination to estimate its own dosage. The tested drug dissolved in PBS was formulated to achieve the amount of one dosage between 0.28 to 0.32 mL. Each rat was subcutaneously administered with 1 mg/kg of the tested drug. 0.3 mL of blood samples were collected from the saphenous vein in medial thigh of the rat before and 0.25-, 0.5-, 0.75-, 1-, 2-, 4-, 24-hour after administration. Whole blood was centrifuged under 3500 rpm for 10 min and supernatant (serum) was moved to a clean 1.5 mL eppendorf and stored at −80° C.
Sample pretreatment was as follows: The frozen serum was thawed in an ice bath. One hundred μL of the serum was moved to a clean 1.5 mL eppendorf and 10 μL of internal standard material was added. The mixture was added with 200 μL ACN and mixed again. The sample was centrifuged under 14000 rpm at 4° C. for 10 min, and the supernatant was moved to the other clean eppendorf and dried in a vacuum system at 60° C. for 30 min. The dried sample was dissolved in 900 μL ddH2O. The sample was added to a solid phase extraction column previously activated with methanol and ddH2O. After the sample passed through, the extraction column was washed with ddH2O alone and then ddH2O containing 5% ACN and 0.1% TFA. The sample was dissolved from the extraction column with ACN containing 0.1% TFA and dried under a vacuum system at 60° C. for 1 hour. The dried sample was redissolved with 100 μL of ddH2O containing 50% ACN. The sample was analyzed with HPLC-MS/MS system.
The sample analysis was as described below. 20 μL of the sample was poured into the HPLC-MS/MS system. The solvent system was applied in gradient partitioning: 90% A (H2O/ACN=98/2, 0.1% F.A.) and 10% B (H2O/ACN=20/80, 0.1% F.A.) at 0-3 min; 10% A and 90% B at 3-6.5 min; 90% A and 10% B again at 6.5-15 min. The flow rate was 0.2 mL/min. The column was ZORBAX C18, 5 μm, 2.1×50 mm (Agilent) and the detector was ABI 4000 Q Trap. Each sample was analyzed for 15 min. The results were compared with the standard calibration curve to estimate the concentration of each sample. All data was statistically analyzed with Excel or WinNonlin.

Usually AUC stands for concentration integrated over time. The term Cmax denotes the peak of the concentration-time curve. For orientation: Tmax means the time from dosing to the highest level. Consider `CC[C@H](C)[C@H](NC(=O)[C@H](CO)NC(=O)[C@@H](NC(=O)[C@@H]1CCCN1C(=O)[C@H](C)NC(=O)[C@@H](N)CC(N)=O)C(C)C)C(=O)N1CCC[C@H]1C(=O)N[C@@H](CCC(N)=O)C(=O)O` [BMEC-NAP, H-NAPVSIPQ-OH, reference compound], for which the “Conc. after 4-hour in Caco-2 cells” value in the data set with Caco-2 cell was 42.49. Moreover, in data set [1] (in vivo, sc), the AUC amounted to 55.8 ng·h/mL, the Cmax was found to be 55.5 ng/mL and the Tmax worked out at 15 min. Also, the half-life in data set [1] (in vivo, sc, read-out: T½ (converted)) is 51 min. In data set [1], the TNAP-max came out at 0.25 h and the “time required to reach the highest concentration” value worked out at 0.25 h.

The values above are taken from patent US7544666B2, “NAP derivatives” (Industrial Technology Research Institute, priority 2005, dated 2009).
